30 compounds from PubChem BioAssay (NCI) can be followed below.

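Following 48 hours of exposure in 96-well plates, responses at five concentrations were used to interpolate endpoints linearly. TGI is the concentration that stops growth completely.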 Where only a bound is given, the exact number is not on record here.

In one test the test system is DU-145 prostate. Nature of the test: NCI tumour cell line growth inhibition, 48 h.
In the case of `NC(C(F)(F)F)(C(F)(F)F)P(=O)(Cc1ccccc1)Cc1ccccc1`, the TGI was over 100 µM.

As to `S=C(N/N=C\C=N/NC(=S)N1CCCCC1)N1CCCCC1`, the TGI is over 100 µM.

`Cc1cc(N(CCC#N)CCC#N)ccc1/C=N/NC(=O)c1cc(Cl)ccc1O` showed a TGI of over 100 µM.

For the compound `Cc1ccc(C(=O)Nc2ccc(CP(=O)(O)O)cc2CP(=O)(O)O)cc1NC(=O)c1cccc(N)c1`, the TGI is over 100 µM.

In the case of `CN(C)/N=N/c1nc2c(c(=O)n(C)c(=O)n2C)n1C`, the TGI was over 100 µM.

`COc1ccccc1N/C(=C\C(=O)C(=O)NC12CC3CC(CC(C3)C1)C2)c1ccccc1` showed a TGI of over 10 µM.

As to `Nc1cc(CO)cc(Nc2nc3ccc(Cl)cc3c3[nH]c4ccccc4c23)c1`, the TGI is 15.2 µM.

`CCN1CC2=C(NC(=S)NC2c2ccc(Cl)cc2)/C(=C/c2ccc(Cl)cc2)C1` (stereo not drawn) returned a TGI of over 100 µM.

`CN1C(=O)N(c2ccccc2)C2(CCN(CC3COc4ccccc4O3)CC2)C1=O` (stereo not drawn) gave a TGI of over 100 µM.

Consider `NC(=O)N/N=C(\Cc1nc2ccc(Cl)cc2[nH]c1=O)C(=O)Nc1ccc(Cl)cc1Cl`, for which the TGI was over 100 µM.

In turn, `O=c1nc(N2CCN(c3ccccc3)CC2)ccn1C1OC(CO)C(O)C1O` (stereo not drawn) had a TGI of over 100 µM.

Compound `OCCCCCNc1c2ccccc2nc2ccccc12` displayed a TGI of 25.3 µM.

Turning to `O=C(/C=C/c1ccc(O)c([N+](=O)[O-])c1)CC(=O)/C=C/c1ccc(O)c([N+](=O)[O-])c1`, the TGI was over 100 µM.

The compound `CC(C)=CCOC(=O)C(C)=[N+]=[N-]` had a TGI of over 100 µM.

`CC(C)(N=NC(C)(C)C(=O)NCCO)C(=O)NCCO` came in with a TGI of over 100 µM.

For the compound `c1ccc2c(c1)OC(N1CCCC1)c1cnc(N3CCCC3)nc1-2` (stereo not drawn), the TGI is over 100 µM.

`CC(C)c1ccc2[nH]c(O)c(-c3[nH]c4ccccc4c3N=O)c2c1`: the TGI came to 20.8 µM.

As to `CCCCCCCCCCCCCCCCCCNc1ccn(C2OC(COP(=O)(O)OCC3OC(n4ccc(NC(=O)CCCCCCCCCCCCCCCCC)nc4=O)C(OC(C)=O)C3OC(C)=O)C(OC(C)=O)C2OC(C)=O)c(=O)n1` (stereo not drawn), the TGI was over 100 µM.

`Cc1nc2c(sc(=S)n2-c2ccccc2)c2nc3ncccc3n12` came in with a TGI of over 100 µM.

The compound `COc1ccc(N2C(=O)C3c4[nH]c5ccc(OCc6ccccc6)cc5c4C4CCC(C(C)(C)C)CC4C3C2=O)cc1` (stereo not drawn) displayed a TGI of over 100 µM.

Consider `Cc1nnc(Nc2ccccc2)o1`, for which the TGI is over 100 µM.

For a further test, the system named is HOP-92 NSCLC. Nature of the test: NCI tumour cell line growth inhibition, 48 h.
In the case of `S=C(N/N=C\C=N/NC(=S)N1CCCCC1)N1CCCCC1`, the TGI was 45.8 µM.

`CN1C(=O)C2C(=O)N(Cc3ccccc3)CC(=O)N2c2cccnc21` (stereo not drawn) returned a TGI of over 100 µM.

Turning to `Nc1cc(CO)cc(Nc2nc3ccc(Cl)cc3c3[nH]c4ccccc4c23)c1`, the TGI was 9.11 µM.

`O=C(CC(=O)n1nc(-c2ccccc2)c(N=Nc2ccccc2C(=O)O)c1-c1ccccc1)Nc1ccc(Cl)cc1` gave a TGI of 42.2 µM.

Turning to `CN1C(=O)N(c2ccccc2)C2(CCN(CC3COc4ccccc4O3)CC2)C1=O` (stereo not drawn), the TGI is over 100 µM.

The compound `CCOC(=O)C1Cc2[nH]c3ccccc3c2C(C)C1C` (stereo not drawn) registered a TGI of 32 µM.

In turn, `O=c1nc(N2CCN(c3ccccc3)CC2)ccn1C1OC(CO)C(O)C1O` (stereo not drawn) returned a TGI of over 100 µM.

Compound `Cn1cc2ccccc2c1-c1nc(N)nc(F)n1` showed a TGI of over 100 µM.

In the case of `CC(C)(N=NC(C)(C)C(=O)NCCO)C(=O)NCCO`, the TGI was over 100 µM.

Consider `c1ccc2c(c1)OC(N1CCCC1)c1cnc(N3CCCC3)nc1-2` (stereo not drawn), for which the TGI turned out to be 47.3 µM.

For the compound `CC1=C(O)C(=O)[C@@H]2O[C@@H]2C1=O`, the TGI came out at 17.1 µM.

For the compound `Cc1nc2c(sc(=S)n2-c2ccccc2)c2nc3ncccc3n12`, the TGI was over 100 µM.

In turn, `Cc1ccc(-c2c(C#N)c(-c3ccccc3)n(NS(=O)(=O)c3ccccc3)c(=O)c2C#N)cc1` showed a TGI of over 100 µM.

With `O=c1[nH]n2c(=O)cc[nH]c2c1-c1nnns1`, the TGI is over 100 µM.

`N.N.N.O=[N+]([O-])[O-].O=[N+]([O-])[O-].O=[N+]([O-])[O-].O=[N+]([O-])[O-].[Co+3]` registered a TGI of over 100 µM.

In the next test the test system is NCI-H23 lung. In words: NCI tumour cell line growth inhibition, 48 h.
Consider `NC(C(F)(F)F)(C(F)(F)F)P(=O)(Cc1ccccc1)Cc1ccccc1`, for which the TGI is over 100 µM.

Regarding `S=C(N/N=C\C=N/NC(=S)N1CCCCC1)N1CCCCC1`, the TGI is over 40.1 µM.

`CN1C(=O)C2C(=O)N(Cc3ccccc3)CC(=O)N2c2cccnc21` (stereo not drawn) came in with a TGI of over 100 µM.

In the case of `Cc1cc(N(CCC#N)CCC#N)ccc1/C=N/NC(=O)c1cc(Cl)ccc1O`, the TGI was over 100 µM.

With `Cc1ccc(C(=O)Nc2ccc(CP(=O)(O)O)cc2CP(=O)(O)O)cc1NC(=O)c1cccc(N)c1`, the TGI is over 100 µM.

The compound `COc1ccccc1N/C(=C\C(=O)C(=O)NC12CC3CC(CC(C3)C1)C2)c1ccccc1` came in with a TGI of over 10 µM.

For the compound `Nc1cc(CO)cc(Nc2nc3ccc(Cl)cc3c3[nH]c4ccccc4c23)c1`, the TGI stood at 40 µM.

Regarding `O=C(CC(=O)n1nc(-c2ccccc2)c(N=Nc2ccccc2C(=O)O)c1-c1ccccc1)Nc1ccc(Cl)cc1`, the TGI was found to be 93.9 µM.

In turn, `CCN1CC2=C(NC(=S)NC2c2ccc(Cl)cc2)/C(=C/c2ccc(Cl)cc2)C1` (stereo not drawn) yielded a TGI of over 100 µM.

With `CN1C(=O)N(c2ccccc2)C2(CCN(CC3COc4ccccc4O3)CC2)C1=O` (stereo not drawn), the TGI is over 100 µM.

For the compound `CCOC(=O)C1Cc2[nH]c3ccccc3c2C(C)C1C` (stereo not drawn), the TGI amounted to 27.3 µM.

In the case of `NC(=O)N/N=C(\Cc1nc2ccc(Cl)cc2[nH]c1=O)C(=O)Nc1ccc(Cl)cc1Cl`, the TGI was over 100 µM.

Regarding `O=c1nc(N2CCN(c3ccccc3)CC2)ccn1C1OC(CO)C(O)C1O` (stereo not drawn), the TGI is over 100 µM.

On to `OCCCCCNc1c2ccccc2nc2ccccc12`, for which the TGI was found to be 5.47 µM.

`O=C(/C=C/c1ccc(O)c([N+](=O)[O-])c1)CC(=O)/C=C/c1ccc(O)c([N+](=O)[O-])c1` registered a TGI of over 100 µM.

Take `CC(C)=CCOC(=O)C(C)=[N+]=[N-]`: the TGI was over 100 µM.

Take `Cn1cc2ccccc2c1-c1nc(N)nc(F)n1`: the TGI is over 100 µM.

As to `CC(C)(N=NC(C)(C)C(=O)NCCO)C(=O)NCCO`, the TGI is over 100 µM.

Take `c1ccc2c(c1)OC(N1CCCC1)c1cnc(N3CCCC3)nc1-2` (stereo not drawn): the TGI was over 100 µM.

The compound `CC1=C(O)C(=O)[C@@H]2O[C@@H]2C1=O` came in with a TGI of 35.8 µM.

Turning to `CC(C)c1ccc2[nH]c(O)c(-c3[nH]c4ccccc4c3N=O)c2c1`, the TGI turned out to be 16.1 µM.

As for `CCCCCCCCCCCCCCCCCCNc1ccn(C2OC(COP(=O)(O)OCC3OC(n4ccc(NC(=O)CCCCCCCCCCCCCCCCC)nc4=O)C(OC(C)=O)C3OC(C)=O)C(OC(C)=O)C2OC(C)=O)c(=O)n1` (stereo not drawn), the TGI is over 100 µM.

The compound `Cc1nc2c(sc(=S)n2-c2ccccc2)c2nc3ncccc3n12` had a TGI of over 100 µM.

For `COc1ccc(N2C(=O)C3c4[nH]c5ccc(OCc6ccccc6)cc5c4C4CCC(C(C)(C)C)CC4C3C2=O)cc1` (stereo not drawn), the TGI is over 100 µM.

With `COc1ccc(C(C#N)NNC(=O)c2ccccc2O)cc1OC` (stereo not drawn), the TGI worked out at 28.4 µM.

In the case of `O=c1[nH]n2c(=O)cc[nH]c2c1-c1nnns1`, the TGI is over 100 µM.

In turn, `N.N.N.O=[N+]([O-])[O-].O=[N+]([O-])[O-].O=[N+]([O-])[O-].O=[N+]([O-])[O-].[Co+3]` gave a TGI of over 100 µM.
